In patent US4672068A, “Antihypertensive 1,4-dihydropyridines having a conjugated ester” (Fujirebio Kabushiki Kaisha, priority 1984, dated 1987):

Test system: Male spontaneously hypertensive rats (SHR), arterial blood pressure
Assay: Depressor response after intravenous administration (30 μg/kg), Table 1
Type: in vivo, rat
Conditions: for Duration: '90<' means greater than 90
Procedure: Male spontaneously hypertensive rats (SHR) which had mean arterial blood pressures higher than 140 mmHg were used for the experiments. Arterial blood pressure was measured through the catherized artery with a pressure transducer (MPU-0.5, manufactured by Nihon Kohden Kabushiki Kaisha). The catheter was inserted into the abdominal aorta via the median coccygcal artery of SHR under light ether anesthesia. The recordings were made on a rectigraph (manufactured by Sanei Sokki Kabushiki Kaisha). The 1,4-dihydropyridine derivatives prepared in the foregoing examples were administered with catheter which was inserted previously into the caudal vein or duodenum at least two hours after the operation. SHR were restrained with wire mesh cage immediately after the operation. Each derivative to be tested was dissolved in 1.5% PVP/ethanol, and then diluted with 0.9% saline or intravenous administration (30 μg/kg), or suspended in 5% gum arabic solution of intraduodenal administration (1 mg/kg).

Structure (SMILES)	The time to reach the lowest BP [min]	ΔBP (Maximum depressor response) [mmHg]	Duration [min]
COC(=O)C1=C(C)NC(C)=C(C(=O)OCCC=Cc2ccc([N+](=O)[O-])cc2)C1c1cccc([N+](=O)[O-])c1 (stereo not shown) [Example 21, 4(p-nitrophenyl)-3-butenyl methyl 4-(3-nitrophenyl)-2,6-dimethyl-1,4-dihydropyridine-3,5-dicarboxylate]	1.0	70	> 120
CC=CC=CCOC(=O)C1=C(C)NC(C)=C(C(=O)OC)C1c1cccc(C(F)(F)F)c1 (stereo not shown) [Example 72, methyl 2,4-hexadienyl 4-(3-trifluoromethylphenyl)-2,6-dimethyl-1,4-dihydropyridine-3,5-dicarboxylate]	1.5	63	> 120
COC(=O)C1=C(C)NC(C)=C(C(=O)OCC=CC=Cc2cccc3ccccc23)C1c1cccc([N+](=O)[O-])c1 (stereo not shown) [Example 54, Methyl 5-(1-naphthyl)-2,4-pentadienyl 4-(3-nitrophenyl)-2,6-dimethyl-1,4-dihydropyridine-3,5-dicarboxylate]	6.0	30	> 90
COC(=O)C1=C(C)NC(C)=C(C(=O)OCCC=Cc2ccc(C)cc2)C1c1cccc([N+](=O)[O-])c1 (stereo not shown) [Example 20, 4-(p-methylphenyl)-3-butenyl methyl 4-(3-nitrophenyl)-2,6-dimethyl-1,4-dihydropyridine-3,5-dicarboxylate]	1.8	52.5	90
CC1=C(C(=O)OCC=Cc2ccccc2)C(c2cccc([N+](=O)[O-])c2)C(C(=O)OCCSc2ccccc2)=C(C)N1 (stereo not shown) [Example 42, Cinnamyl 2-phenylthioethyl 4-(3-nitrophenyl)-2,6-dimethyl-1,4-dihydropyridine-3,5-dicarboxylate]	10	35	> 90
CCOC(=O)C1=C(C)NC(C)=C(C(=O)OCC=CC=Cc2ccccc2)C1c1cccc([N+](=O)[O-])c1 (stereo not shown) [Example 60, ethyl 5-phenyl-2,4-pentadienyl 4-(3-nitrophenyl)-2,6-dimethyl-1,4-dihydropyridine-3,5-dicarboxylate]	4.0	60	> 90
C=C(C)COC(=O)C1=C(C)NC(C)=C(C(=O)OCC=CC=CC)C1c1cccc([N+](=O)[O-])c1 (stereo not shown) [Example 77, 2-methyl-2-propen-1-yl 2,4-hexadienyl 4-(3-nitrophenyl)-2,6-dimethyl-1,4-dihydropyridine-3,5-dicarboxylate]	2	60	
COC(=O)C1=C(C)NC(C)=C(C(=O)OCC=C(C)c2ccccc2)C1c1cccc([N+](=O)[O-])c1 (stereo not shown) [Example 5, 3-phenyl-2-butenyl methyl 4-(3-nitrophenyl)-2,6-dimethyl-1,4-dihydropyridine-3,5-dicarboxylate]	1.0	44	65
CC=CC=CCOC(=O)C1=C(C)NC(C)=C(C(=O)OCCOC)C1c1cccc([N+](=O)[O-])c1 (stereo not shown) [Example 69, 2-methoxyethyl 2,4-hexadienyl 4-(3-nitrophenyl)-2,6-dimethyl-1,4-dihydropyridine-3,5-dicarboxylate]	1.0	60	> 90
COC(=O)C1=C(C)NC(C)=C(C(=O)OC(C)(C)C=Cc2ccccc2)C1c1cccc([N+](=O)[O-])c1 (stereo not shown) [Example 23, 1,1-dimethyl-3-phenyl-2-propenyl methyl 4-(3-nitrophenyl)-2,6-dimethyl-1,4-dihydropyridine-3,5-dicarboxylate]	2.2	48	
